Assay results taken from article PMC9260081, “Design, Synthesis, and Evaluation of Anticonvulsant Activities of New Triazolopyrimidine Derivatives” (Frontiers in Chemistry, 2022).
“And” between values parts separate entries of the source, which are not always exact repeats. Equal values may be shown once. Read-outs that look alike come from different tables or passages of the source. Marks after values point to notes of the source that are not given here.

Legend:
MES-induced seizures = assay: Maximal electroshock seizure (MES) test; assay type: in vivo, mice; conditions: for ED50 / minimal effective dose: Mus musculus, ip; for ED50: read-out: ED50 MES; for PI MES, protective index (TD50/ED50): TD50 rotarod / ED50 MES, mice i.p.; for minimal effective dose: dosages 30, 100, 300 mg/kg, read-out: MES screening, minimum dose whereby bioactivity was demonstrated in half or more of the mice; for MES model, number of animals protected/number of animals tested: 30 mg/kg, 0.5 h
Protocol: (§1) Male Kunming mice with weights from 18 to 22 g were used in all the pharmacological experiments. The mice were housed in the standard cages with 10 each, where a controlled temperature (25°C ± 2°C) with a 12 h light/dark cycle was maintained. All animals had free access to food and water. All experiments and procedures involving animals were carried out according to the Guide for the Care and Use of Laboratory Animals (National Academies Press, Washington, D.C., United States). Approval from the local medical ethical committee was obtained before the experiment.
In the MES test, mice were subjected to ear stimulation using a 0.2 s 60-Hz 50-mA alternating current to elicit seizures. Tonic hind limb extension was considered as the seizure occurring, and the vanishing of tonic hind limb extension indicates the protection against the MES-induced seizures. Mice were injected intraperitoneally with test compounds at doses of 300, 100, and 30 mg/kg to evaluate their general anticonvulsant activity. Half and 4 h intervals were chosen to test the anti-MES activity. […] A series of doses of the tested compounds were injected into the mice with 10 in one group.

PTZ-induced seizures = assay: Subcutaneous pentylenetetrazole (PTZ) test; assay type: in vivo, mice; conditions: for ED50 / minimal effective dose: Mus musculus; for ED50 / PI scPTZ, protective index (TD50/ED50) / minimal effective dose: ip; for ED50: read-out: ED50 scPTZ; for PI scPTZ, protective index (TD50/ED50): male, Kunming, mouse, in vivo; for minimal effective dose: dosages 30, 100, 300 mg/kg, read-out: PTZ screening, minimum dose whereby bioactivity was demonstrated in half or more of the mice; for PTZ model, number of animals protected/number of animals tested: 30 mg/kg, 0.5 h
Protocol: as §1
In the PTZ test, mice were subcutaneously administered with PTZ at the dose of 85 mg/kg. At this dose, mice can be elicited a threshold seizure characterized by an episode of clonic spasms and tonic spasms. After being treated with test compounds at doses of 300, 100, and 30 mg/kg, the mice were considered protected if a single episode of clonic spasms of more than 5 s duration was not obtained. The quantitative anticonvulsant activity (ED50) in the PTZ model was determined and calculated with the same method described in the MES test.

[1] = Neurotoxicity screening (rotarod test); assay type: in vivo; conditions: male, Kunming, mouse, in vivo, ip; rotarod, mice; 95% confidence interval in brackets
Protocol: as §1
(§2) The rotarod test was used to evaluate the neurotoxicity of the synthesized compounds. Before the formal experiments, mice were trained to climb on a rotating rod of diameter 3.2 cm with the rotation speed of 10 rpm. Test compounds in the three doses were intraperitoneally injected into the trained mice. […] The rough neurotoxic dose was obtained in which mice cannot maintain equilibrium on the rod for at least 1 min. The quantitative neurotoxic dose (TD50) of the test compounds was measured and calculated with the same method described in the MES test.

3-MP-induced seizures = assay: 3-Mercaptopropionic acid (3-MP)-induced seizure test; assay type: in vivo; conditions: 3-MP 60 mg/kg; compound 30 mg/kg, test time 0.5 h; percentage of animals, 10 mice
Protocol: as §1
(§3) In 3-MP–induced seizure test, groups of 10 mice were administered with 30 mg/kg of test samples or vehicle. After 30 min, the minimum dose of 3-MP (60 mg/kg) that could completely induce seizures for mice was intraperitoneally injected into the test mice. The mice were placed into separate cages each, and the number of clonic seizures, tonic seizures, and mortality was recorded for 30 min.

BIC-induced seizures = assay: Bicuculline (BIC)-induced seizure test; assay type: in vivo; conditions: BIC 5.4 mg/kg, compound 30 mg/kg, test time 0.5 h, percentage of animals, 10 mice
Protocol: as §1
as §3, with “the BIC-induced” for “3-MP–induced”, “Then,” for “After”, “min later,” for “min,”, “BIC (5.4” for “3-MP (60”, “subcutaneously” for “intraperitoneally”

[2] = test system: ability to maintain equilibrium on rotating rod; assay: Neurotoxicity screening (rotarod test); assay type: in vivo; conditions: i.p.; for NT screening (rotarod), minimum neurotoxic dose in half or more of the mice: dosages 30, 100, 300 mg/kg
Protocol: as §1, §2

GABAA BZD receptor = assay: Radioligand receptor binding assay ([3H]-flumazenil competition); conditions: rat brain membranes; for IC50: competition with 0.5 nM [3H]-flumazenil, 95% CI in brackets; for Ki: competition with [3H]-flumazenil, Cheng–Prusoff
[3] = mice, 95% confidence interval in brackets
[4] = pretreated with flumazenil (FMZ) 10 mg/kg 15 min before seizure induction
[5] = pretreated with thiosemicarbazide (TSC) 25 mg/kg/day for 3 days

| Compound | ED50 (MES-induced seizures; [3]) | PI MES, protective index (TD50/ED50) (MES-induced seizures) | ED50 (PTZ-induced seizures; [3]) | PI scPTZ, protective index (TD50/ED50) (PTZ-induced seizures) | TD50 at 30 min [1] | minimal effective dose (MES-induced seizures; mice, 0.5 h after injection) | minimal effective dose (MES-induced seizures; mice, 4 h after injection) | minimal effective dose (PTZ-induced seizures; mice, 0.5 h after injection) | minimal effective dose (PTZ-induced seizures; mice, 4 h after injection) | NT screening (rotarod), minimum neurotoxic dose in half or more of the mice ([2]; 0.5 h after injection) | NT screening (rotarod), minimum neurotoxic dose in half or more of the mice ([2]; 4 h after injection) | also measured |
| --- | --- | --- | --- | --- | --- | --- | --- | --- | --- | --- | --- | --- |
| NC(=O)N1c2ccccc2C=Cc2ccccc21 [Carbamazepine, reference compound] | 9.8 mg/kg | 4.5 | > 100 mg/kg | <0.44 | 44 mg/kg |  |  |  |  |  |  | Clonic seizure (%) (3-MP-induced seizures): 100%; Lethality (%) (3-MP-induced seizures): 0** %; Tonic seizure (%) (3-MP-induced seizures): 0*** %; Clonic seizure (%) (BIC-induced seizures): 100%; Lethality (%) (BIC-induced seizures): 20** %; Tonic seizure (%) (BIC-induced seizures): 0*** %; Lethality (%) (BIC-induced seizures; listed as carbamazepine): significantly inhibited; Tonic seizure (%) (BIC-induced seizures; listed as carbamazepine): significantly inhibited |
| c1ccc(-c2ccnc3ncnn23)cc1 [Compound 3a, 7-Phenyl-[1,2,4]triazolo[1,5-a]pyrimidine] |  |  |  |  |  | 300 mg/kg | > 300 mg/kg | 100 mg/kg | > 300 mg/kg | — (A dash indicates the absence of anticonvulsant activity and neurotoxicity at the maximum dose administered (300 mg/kg)) | — (A dash indicates the absence of anticonvulsant activity and neurotoxicity at the maximum dose administered (300 mg/kg)) | melting point: 142 to 143 °C |
| Cc1ccc(-c2ccnc3ccnn23)cc1 [Compound 4h, 7-(P-tolyl)pyrazolo[1,5-a]pyrimidine] |  |  |  |  |  | > 300 mg/kg | > 300 mg/kg | 300 mg/kg | > 300 mg/kg | — (A dash indicates the absence of anticonvulsant activity and neurotoxicity at the maximum dose administered (300 mg/kg)) | — (A dash indicates the absence of anticonvulsant activity and neurotoxicity at the maximum dose administered (300 mg/kg)) |  |
| COc1ccc(-c2ccnc3ccnn23)cc1 [Compound 4i, 7-(4-Methoxyphenyl)pyrazolo[1,5-a]pyrimidine] |  |  |  |  |  | > 300 mg/kg | > 300 mg/kg | 300 mg/kg | > 300 mg/kg | — (A dash indicates the absence of anticonvulsant activity and neurotoxicity at the maximum dose administered (300 mg/kg)) | — (A dash indicates the absence of anticonvulsant activity and neurotoxicity at the maximum dose administered (300 mg/kg)) |  |
| CCCOc1ccc(-c2ccnc3ncnn23)cc1 [Compound 6a, 7-(4-Propoxyphenyl)-[1,2,4]triazolo[1,5-a]pyrimidine] |  |  |  |  |  | 300 mg/kg | > 300 mg/kg | 300 mg/kg | > 300 mg/kg | — (A dash indicates the absence of anticonvulsant activity and neurotoxicity at the maximum dose administered (300 mg/kg)) | — (A dash indicates the absence of anticonvulsant activity and neurotoxicity at the maximum dose administered (300 mg/kg)) |  |
| CCCCOc1ccc(-c2ccnc3ncnn23)cc1 [Compound 6b, 7-(4-Butoxyphenyl)-[1,2,4]triazolo[1,5-a]pyrimidine] |  |  |  |  |  | 100 mg/kg | > 300 mg/kg | 300 mg/kg | > 300 mg/kg | — (A dash indicates the absence of anticonvulsant activity and neurotoxicity at the maximum dose administered (300 mg/kg)) | — (A dash indicates the absence of anticonvulsant activity and neurotoxicity at the maximum dose administered (300 mg/kg)) |  |
| CCCCCOc1ccc(-c2ccnc3ncnn23)cc1 [Compound 6c, 7-(4-(Pentyloxy)phenyl)-[1,2,4]triazolo[1,5-a]pyrimidine] | 25.3 mg/kg | 15.0 | 23.7 mg/kg | 16.0 | 380 mg/kg | 30 mg/kg | 300 mg/kg | 30 mg/kg | > 300 mg/kg | — (A dash indicates the absence of anticonvulsant activity and neurotoxicity at the maximum dose administered (300 mg/kg)) | — (A dash indicates the absence of anticonvulsant activity and neurotoxicity at the maximum dose administered (300 mg/kg)) |  |
| CCCCCCOc1ccc(-c2ccnc3ncnn23)cc1 [Compound 6d, 7-(4-(Hexyloxy)phenyl)-[1,2,4]triazolo[1,5-a]pyrimidine] | 15.8 mg/kg | 20.1 | 14.1 mg/kg | 22.5 | 317 mg/kg | 30 mg/kg | 100 mg/kg | 30 mg/kg | > 300 mg/kg | 300 mg/kg | — (A dash indicates the absence of anticonvulsant activity and neurotoxicity at the maximum dose administered (300 mg/kg)) | MES model, number of animals protected/number of animals tested (MES-induced seizures; [4]): completely reversed and 0/5***; MES model, number of animals protected/number of animals tested (MES-induced seizures; [5]): completely reversed and 0/5***; MES model, number of animals protected/number of animals tested (MES-induced seizures; pretreatment with saline): full protection and completely protected and 5/5 ^c and 5/5; PTZ model, number of animals protected/number of animals tested (PTZ-induced seizures; [4]): completely reversed and 0/5***; PTZ model, number of animals protected/number of animals tested (PTZ-induced seizures; [5]): completely reversed and 0/5***; PTZ model, number of animals protected/number of animals tested (PTZ-induced seizures; pretreatment with saline): full protection and 5/5; Clonic seizure (%) (BIC-induced seizures): 10%; Lethality (%) (BIC-induced seizures): 0%; Tonic seizure (%) (BIC-induced seizures): 0%; IC50 (GABAA BZD receptor): 8.4 nM; Ki (GABAA BZD receptor): 3.9 nM |
| c1ccc(COc2ccc(-c3ccnc4ncnn34)cc2)cc1 [Compound 6e, 7-(4-(Benzyloxy)phenyl)-[1,2,4]triazolo[1,5-a]pyrimidine] | 38 mg/kg | 9.6 | 28.4 mg/kg | 12.9 | 366 mg/kg | 30 mg/kg | 300 mg/kg | 30 mg/kg | > 300 mg/kg | 300 mg/kg | — (A dash indicates the absence of anticonvulsant activity and neurotoxicity at the maximum dose administered (300 mg/kg)) |  |
| CN1C(=O)CN=C(c2ccccc2)c2cc(Cl)ccc21 [Diazepam, reference compound] |  |  |  |  |  |  |  |  |  |  |  | ED50 (MES-induced seizures): 10.1 mg/kg; ED50 (PTZ-induced seizures): 0.5 mg/kg; IC50 (GABAA BZD receptor): 1.3 nM; Ki (GABAA BZD receptor): 0.61 nM |
| CCCC(CCC)C(=O)O [Valproate, reference compound] | 264 mg/kg | 1.6 | 149 mg/kg | 2.8 |  |  |  |  |  |  |  | TD50 ([2]; rotarod, mice, 95% confidence interval in brackets): 418 (369–450) mg/kg |
